Assay results published in patent US20040127518A1, “Modulation of anxiety through blockade of anandamide hydrolysis” (priority 2002, published 2004).
“Also recorded” adds a separate entry of the source. Like-named read-outs stand apart in the source and are kept apart here.

Key:
rat cortical neurons = assay: Transport, accumulation and release of non-metabolized [3H]anandamide in cortical neurons; format: cell-based; details: for accumulation of non-metabolized [3H]anandamide in neurons: 4-min incubation, UCM532 3 μM, UCM597 10 nM
FAAH = biological target: T1, FAAH (Rattus norvegicus, UniProt P97612); assay: biochemical; format: biochemical; design: from tissue; host or cells: rat brain (membrane fraction of homogenate; Wistar rats)
T1 sequence (P97612 1-579): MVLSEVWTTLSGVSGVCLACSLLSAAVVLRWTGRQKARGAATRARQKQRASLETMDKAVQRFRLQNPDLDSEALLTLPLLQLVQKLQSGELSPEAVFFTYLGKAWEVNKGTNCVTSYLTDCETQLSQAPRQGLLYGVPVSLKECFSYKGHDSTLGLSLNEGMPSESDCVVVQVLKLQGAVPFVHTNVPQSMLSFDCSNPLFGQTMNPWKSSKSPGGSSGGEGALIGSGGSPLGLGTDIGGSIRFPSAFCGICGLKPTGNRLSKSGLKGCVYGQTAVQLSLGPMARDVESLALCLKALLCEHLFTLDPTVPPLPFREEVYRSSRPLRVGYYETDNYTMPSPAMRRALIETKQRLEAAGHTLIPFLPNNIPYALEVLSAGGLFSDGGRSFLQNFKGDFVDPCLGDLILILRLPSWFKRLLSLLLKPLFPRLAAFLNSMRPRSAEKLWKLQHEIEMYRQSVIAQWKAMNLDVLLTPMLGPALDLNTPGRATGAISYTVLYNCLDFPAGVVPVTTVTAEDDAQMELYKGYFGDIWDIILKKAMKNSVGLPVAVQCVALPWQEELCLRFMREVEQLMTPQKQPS

[1] = biological target: electric eel acetylcholinesterase (Electrophorus electricus, UniProt O42275); details: for IC50: read-out: Cholinesterase IC50, Table 3, acetylcholinesterase
Chain of electric eel acetylcholinesterase (O42275 whole entry): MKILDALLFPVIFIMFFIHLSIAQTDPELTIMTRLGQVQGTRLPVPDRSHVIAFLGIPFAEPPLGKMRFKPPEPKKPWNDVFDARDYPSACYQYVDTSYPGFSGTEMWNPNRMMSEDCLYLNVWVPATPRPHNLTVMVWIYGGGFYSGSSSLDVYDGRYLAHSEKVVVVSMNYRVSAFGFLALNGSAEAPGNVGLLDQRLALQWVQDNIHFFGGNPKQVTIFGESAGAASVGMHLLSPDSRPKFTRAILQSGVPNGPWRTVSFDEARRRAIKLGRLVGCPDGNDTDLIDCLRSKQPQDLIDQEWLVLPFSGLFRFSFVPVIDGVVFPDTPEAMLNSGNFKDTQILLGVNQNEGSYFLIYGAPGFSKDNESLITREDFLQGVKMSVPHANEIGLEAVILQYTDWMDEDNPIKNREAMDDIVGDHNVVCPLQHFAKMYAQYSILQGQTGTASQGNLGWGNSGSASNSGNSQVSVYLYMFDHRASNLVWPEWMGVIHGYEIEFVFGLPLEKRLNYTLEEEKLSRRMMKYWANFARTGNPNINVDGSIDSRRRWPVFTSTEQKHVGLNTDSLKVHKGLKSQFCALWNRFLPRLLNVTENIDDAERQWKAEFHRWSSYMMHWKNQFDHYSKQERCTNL
Text: (§4) We prepared cell fractions from rat brain homogenates, and assayed membrane FAAH activity and cytosol MGL activity using anandamide [ethanolamine-3H] (American Radiolabeled Chemicals, ARC (St. Louis Mo.), 60 Ci/mmol) and 2-mono-oleoyl-glycerol-[glycerol-1,2,3^−3H] (ARC, St. Louis Mo., 20 Ci/mmol), respectively, as substrates (Dinh, T. Proc. Natl. Acad. Sci. U.S.A. (2002)). We conducted [^3H]anandamide transport assays in human astrocytoma cells (Piomelli, D. et al., Proc. Natl. Acad. Sci. U.S.A., 96, 5802-5807 (1999)); CB1 and CB2 binding assays in rat cerebellar membranes and CB2-overexpressing Chinese hamster ovary cells (Receptor Biology-Perkin Elmer, Wellesley, Mass.), respectively, using [^3H]WIN-55212-2 (NEN-Dupont, Boston, Mass., 40-60 Ci/mmol) as a ligand (Devane, W. A. et al. Science, 258, 1946-1949 (1992)); cholinesterase assays with a commercial kit (Sigma, St. Louis, Mo.), using purified enzymes (electric eel acetylcholinesterase type V-S and horse serum cholinesterase; both from Sigma, St. Louis, Mo.) and following manufacturer's instructions.

anandamide transport = assay: [3H]anandamide transport assay in human astrocytoma cells; details: human astrocytoma cells
Text: as §4

[2] = biological target: T2, rat brain monoglyceride lipase (MGL) (Rattus norvegicus, UniProt Q8R431); assay: Cytosol MGL activity, 2-mono-oleoyl-glycerol as substrate
T2 sequence (Q8R431 1-303): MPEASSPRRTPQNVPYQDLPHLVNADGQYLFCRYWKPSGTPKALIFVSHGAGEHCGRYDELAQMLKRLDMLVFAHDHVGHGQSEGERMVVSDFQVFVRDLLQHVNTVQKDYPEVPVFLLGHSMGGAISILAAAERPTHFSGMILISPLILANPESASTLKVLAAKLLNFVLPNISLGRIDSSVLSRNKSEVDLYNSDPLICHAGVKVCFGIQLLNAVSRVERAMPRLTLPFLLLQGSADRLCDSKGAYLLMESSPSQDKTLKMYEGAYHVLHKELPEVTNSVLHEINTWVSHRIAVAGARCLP
Text: as §4

[3] = biological target: horse plasma butyryl cholinesterase (Equus caballus, UniProt P81908); assay: Cholinesterase assay with commercial kit, purified enzyme
Chain of horse plasma butyryl cholinesterase (P81908 whole entry): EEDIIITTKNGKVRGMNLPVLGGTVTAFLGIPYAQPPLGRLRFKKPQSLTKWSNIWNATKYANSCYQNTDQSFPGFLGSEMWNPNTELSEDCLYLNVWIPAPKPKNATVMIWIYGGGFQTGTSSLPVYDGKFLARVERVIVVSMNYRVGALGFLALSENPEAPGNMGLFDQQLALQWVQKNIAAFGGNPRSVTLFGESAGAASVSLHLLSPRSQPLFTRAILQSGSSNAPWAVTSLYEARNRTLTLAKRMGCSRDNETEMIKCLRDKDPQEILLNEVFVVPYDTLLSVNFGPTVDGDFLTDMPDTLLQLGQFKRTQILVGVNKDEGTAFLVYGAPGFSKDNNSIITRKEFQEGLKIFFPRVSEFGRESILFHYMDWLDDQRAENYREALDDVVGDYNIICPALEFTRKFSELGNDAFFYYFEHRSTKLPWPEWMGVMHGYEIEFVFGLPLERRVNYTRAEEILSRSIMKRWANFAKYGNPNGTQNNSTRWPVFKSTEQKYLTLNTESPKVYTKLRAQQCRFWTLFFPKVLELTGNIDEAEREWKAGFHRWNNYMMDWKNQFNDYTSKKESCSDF
Text: as §4

Mouse formalin test = format: in vivo; details: 0.5 mg kg-1 i.p.
Procedure: (§1) We dissolved FAAH inhibitors in polyethyleneglycol/water (1/1) and rimonabant in saline. Formalin and hot-plate assays were carried out in the mouse, as described (Beltramo, M. et al., FEBS Lett., 403, 263-267 (1997)).
(§2) The compounds exerted, however, moderate antinociceptive effects in two models of acute pain.

Mouse hot-plate test = format: in vivo; details: 0.5 mg kg-1 i.p., 60 min before test
Procedure: as §1, §2

Elevated zero maze test = format: in vivo, rat; details: adult rats; i.p. 30 min before test; UCM532 5 and 10 mg kg-1; UCM597 0.05-0.1 mg kg-1
Procedure: We dissolved FAAH inhibitors and rimonabant in dimethylsulfoxide (DMSO)/saline (7/3 and 9/1, respectively); we administered FAAH inhibitors by i.p. injection 30 min before tests and rimonabant 30 min before UCM532. The elevated zero maze was comprised of a black Perspex annular platform (105 cm diameter, 10 cm width) elevated to 65 cm above ground level, divided equally into four quadrants (Bickerdike, M. J. et al., Eur. J. Pharmacol., 271, 403-411 (1994); Shepherd, J. K. et al., Psychopharmacology, 116, 56-64 (1994)). […] We placed the rats in a closed quadrant and video recorded them for 5-min periods, thoroughly cleaning the maze between sessions. […] Results are expressed as percent time in open quadrant/total time (percent time open). Results were analyzed by one-way ANOVA followed by Tukey's test. We recorded motor activity of each rat in an Opto-Varimex cage (Columbus Instruments, Columbus, Ohio) linked on-line to a computer and placed in a sound-attenuated room illuminated by a 20-W white light. The amount of time spent in ambulatory activity was analyzed using an Auto-Track software (Columbus Instruments, Columbus, Ohio) as described elsewhere (Ali, M. M. et al., Neurosci. Lett., 284, 57-60 (2000); Wedzony, K. et al., Neuropsychopharmacology, 23, 547-559 (2000)). […] We analyzed data by overall one-way ANOVA followed by Tukey's test for individual between-group comparisons. […]

[4] = Body temperature (rectal probe); format: in vivo
Text: (§3) We dissolved all compounds in saline/Tween 80/polyethylenglycol (90/5/5) and administered them by i.p. injection immediately before tests. We measured body temperature with a rectal probe (Type T, Copper-Costantan Thermocouple-Physitemp Instruments INC, Clifton, N.J.) connected to a digital thermometer (model BAT-12 Physitemp Instruments INC, Clifton, N.J.); and catalepsy using the procedure described in Tseng and Craft (Tseng, A. H. et al., Eur. J. Pharmacol., 430, 41-47 (2001)).

[5] = test system: brain content of anandamide, other fatty acid ethanolamides and 2-AG; assay: Brain levels of fatty acid ethanolamides and 2-AG by HPLC/MS; format: in vivo, rat; details: 0.3 mg kg-1 i.p., 2 h after injection
Text: We extracted lipids from tissues with a methanol-chloroform mixture and fractionated them by silica gel column chromatography (Giuffrida, A. et al., Anal. Biochem., 280, 87-93 (2000)). Anandamide and other fatty acid derivatives were quantified by HPLC/MS, using an isotope dilution method (Giuffrida, A. et al., Anal. Biochem., 280, 87-93 (2000)).

[6] = Food intake in free-feeding rats; format: in vivo, rat; details: UCM532 10 mg kg-1 i.p.; UCM597 0.3 mg kg-1 i.p.; data not shown
Procedure: We recorded food intake in free-feeding rats by using an automated system (Scipro Inc., New York). Rats were acclimated to the test cages for three days prior to the tests. Each test began at the onset of the dark phase and lasted for 24 hours.

CB2 receptor = CB2 receptor (Homo sapiens, UniProt P34972); assay: CB2 binding assay in CB2-overexpressing Chinese hamster ovary cells, [3H]WIN-55212-2
Chain of CB2 receptor (P34972 whole entry): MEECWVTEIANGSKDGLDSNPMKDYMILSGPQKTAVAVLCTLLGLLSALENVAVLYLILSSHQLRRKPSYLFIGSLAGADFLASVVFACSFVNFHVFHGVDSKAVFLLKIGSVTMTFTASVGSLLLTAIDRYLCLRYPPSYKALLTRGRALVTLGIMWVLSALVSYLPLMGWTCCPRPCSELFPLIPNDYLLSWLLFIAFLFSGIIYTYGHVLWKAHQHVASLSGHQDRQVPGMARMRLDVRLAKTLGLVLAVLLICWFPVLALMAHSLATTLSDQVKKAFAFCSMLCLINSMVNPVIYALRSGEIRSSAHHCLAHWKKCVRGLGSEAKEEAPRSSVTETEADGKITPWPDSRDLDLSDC
Text: as §4

Catalepsy = format: in vivo; details: UCM532 10 mg kg-1 i.p.; UCM597 0.3 mg kg-1 i.p.; data not shown
Text: as §3

[7] = Table 3, read-out: Amidohydrolase IC50
[8] = Table 4, FAAH IC50, read-out: Inhibition of Amidohydrolase IC50

CCCCC/C=C\C/C=C\C/C=C\C/C=C\CCCC(=O)Nc1ccc(O)cc1 [AM404, N-(4-hydroxyphenyl)arachidonamide, reference compound]
accumulation of non-metabolized [3H]anandamide in neurons (rat cortical neurons; AM404 10 μM): significantly reducing; also recorded: reduces
effect on [3H]anandamide release from UCM597-treated neurons (rat cortical neurons; AM404 10 μM, 15-min incubation): not inhibited

hexyl-N-cyclohexyl carbamate [PL#9]
IC50 (FAAH; [7]): 3700 nM
IC50 (FAAH; [8]): 3700 nM
IC50 [1]: > 30 µM

4-fluoraphenyl N-butylcarbamate [PL#12]
IC50 (FAAH; [7]): 11500 nM
IC50 (FAAH; [8]): 11500 nM
IC50 [1]: > 30 µM

2.3-dihyrdo-2.2-dimethyl-7-benzogumaol N-methylcarbamate [PL#15, reference compound]
IC50 (FAAH; [7]): > 30000 nM
IC50 (FAAH; [8]): > 30000 nM
IC50 [1]: 0.56 µM

CNC(=O)Oc1cccc2ccccc12 [PL#18, carbaryl, reference compound]
inhibition of FAAH activity (in words) (FAAH): ineffective
IC50 (FAAH; IC50(nM)): > 100000 nM
IC50 [1]: 3.1 µM

NC(=O)c1cccc(-c2cccc(OC(=O)NC3CCCCC3)c2)c1 [UCM597, cyclohexylcarbamic acid 3′-carbamoylbiphenyl-3-yl ester]
accumulation of non-metabolized [3H]anandamide in neurons (rat cortical neurons; AM404 10 μM): promote accumulation
accumulated [3H]anandamide released back into the medium (rat cortical neurons; UCM597-treated (10 nM) neurons, 15 min in [3H]anandamide-free solution, n=3): 42.6±8.7%
carrier-mediated uptake of [3H]anandamide (rat cortical neurons; rat cortical neurons): without reducing
effect on anandamide transport (in words) (anandamide transport): no effect
effect on MGL activity (in words) [2]: did not affect
effect on butyryl cholinesterase activity (in words) [3]: did not affect
early phase of formalin-evoked pain behavior (Mouse formalin test): attenuated
late phase of formalin-evoked pain behavior (Mouse formalin test): little or no change
response latencies, hot-plate test (Mouse hot-plate test): significantly lengthened
percent time open, elevated zero maze (Elevated zero maze test): anxiolytic-like responses
body temperature / hypothermia, compound alone ([4]; UCM532 10 mg kg-1 i.p., UCM597 0.3 mg kg-1 i.p.): no effect and no
decrease in body temperature elicited by anandamide ([4]; UCM597 0.3 mg kg-1 i.p. 30 min before anandamide 5 mg kg-1 i.p.): intensified and prolonged
brain content of 2-AG [5]: did not change
brain content of anandamide [5]: significant elevations
brain content of oleoylethanolamide ([5]; n=8-15): 725.3 ± 28.6 pmol g^−1 of tissue
brain content of palmitoylethanolamide ([5]; n=8-15): 1324±395 pmol g^−1 of tissue
hyperphagia (increased food intake) [6]: no
effect on binding of a high-affinity ligand to CB2 (in words) (CB2 receptor): no effect
effect on acetylcholinesterase activity (in words) [1]: did not affect
catalepsy (rigid immobility) (Catalepsy): no catalepsy
